Test results reported in US4886663A (priority 1983, dated 1989).
Where no end group is shown, it is not given here.

Legend:
[1] = system: goat hyperimmune antiserum to synthetic ST; details: in vivo
[2] = in vivo, po
[3] = system: rabbit ligated ileal loops; details: in vivo
[4] = system: hyperimmune rabbit antiserum to biologic ST; details: in vivo
[5] = system: hyperimmune antisera to biologic ST; type: binding, goat and rabbit
[6] = system: hyperimmune antisera to synthetic ST; type: binding, goat and rabbit
suckling mouse = details: in vivo
rat ligated ileal loops = details: in vivo

NTFYCCELCCYPACAGCN (cysteine pairing not given here) [synthetic ST]
mouse units of toxin neutralized by one milliliter of goat hyperimmune antiserum to synthetic ST [1]: 220 MU | diarrhea after p.o. administration [2]: did not cause diarrhea | fluid secretion in rabbit ligated ileal loops [3]: did not cause any fluid secretion | fluid:length ratio in rabbit ligated ileal loops [3]: 1.1±0.3 | mouse units of toxin neutralized by one milliliter of hyperimmune rabbit antiserum to biologic ST [4]: 160 MU | Anti-Biol.-ST: percent recognition of assayed ST by antiserum raised to biologic ST [5]: 263 | antigenicity relative to biologic ST Ib, later preparations [5]: about 3 fold | Anti-Syn. ST: percent recognition of assayed ST by antiserum raised to synthetic ST [6]: 100 | antigenicity compared with biologic ST [6]: identical | Nanograms required to provide a gut: whole body ratio of 0.083 (suckling mouse): 5.3 ng | Suckling Mouse (Percent) (suckling mouse): 120 | biological activity / potency in suckling mouse assay compared with biologic (E. coli) ST (suckling mouse): substantially the same as biologic ST | mouse units of ST activity per microgram (suckling mouse): 175 mouse units per microgram | reduction of ST toxicity by the cross-linking reaction to B subunit (suckling mouse): 727 fold | secretory activity in the suckling mouse assay after dithiothreitol (suckling mouse): abolished its secretory activity | value for one mouse unit (suckling mouse): 5.7 nanograms | ED50 in rat ligated ileal loops (rat ligated ileal loops): 2.0 nanograms | secretory responses in ligated ileal loops compared with biologic ST (rat ligated ileal loops): Substantial identity of secretory responses
